In patent publication US7041678B2 (priority 1999, dated 2006):
Entries after “also recorded” stand apart in the source; their conditions may differ.

Assays:
nor-1 promoter [1] = type: cell-based, Aspergillus parasiticus
nor-1 promoter [2] = type: cell-based, Aspergillus parasiticus; remark: listed apart in the source
aflatoxin biosynthesis = type: cell-based, Aspergillus parasiticus SU-1
nor-1 gene = type: cell-based, Aspergillus parasiticus SU-1
ipnA promoter = type: cell-based, Aspergillus nidulans
tri5 promoter = type: cell-based, Gibberella zeae
ver-1 promoter = experiment: Transcription from the ver-1 promoter; type: cell-based, Aspergillus parasiticus

SMILES: CCCCC/C=C/CCCCCC/C=C/C=C/C(=O)N1CCCCC1 [Cp2]
- Transcription from the nor-1 promoter (nor-1 promoter [1]): inhibit transcription
- Fungus growth on TLC plates (nor-1 promoter [2]): Fungal growth was seen; also recorded: did not inhibit fungus growth
- Inhibition of GUS in TLC bioassay (nor-1 promoter [2]): inhibitory properties
- Concentration that appeared to completely inhibit biosynthesis of aflatoxin (aflatoxin biosynthesis): greater than 26 μg/ml
- Amounts of aflatoxins B1 and G1 (aflatoxin biosynthesis; 2.6-78 μg/ml, 48 hours): reduction
- Transcription of the nor-1 gene (nor-1 gene): inhibits
- nor-1 transcription at lower concentrations (nor-1 gene): did not completely inhibit
- Transcription from the ipnA promoter (GUS) (ipnA promoter): inhibit transcription; also recorded: inhibited
- Transcription from the tri5 promoter (GUS) (tri5 promoter): inhibit transcription; also recorded: inhibited
- Transcription from the ver-1 promoter (ver-1 promoter): inhibit transcription
